Columns and labels:
[1] = target: T1, COX-1 (purified PGHS-1 from ram seminal vesicles) (Ovis aries, UniProt P05979); parameters: method as in PMID 32627543; conditions: at 20 µM; cited from earlier work
T1 construct: Purified PGHS-1 from ram seminal vesicles for COX-1; purchased Cayman Chemical Co., Ann Arbor, MI, USA; host or cells: ram seminal vesicles (tissue-purified)
T1 sequence (P05979 25-600): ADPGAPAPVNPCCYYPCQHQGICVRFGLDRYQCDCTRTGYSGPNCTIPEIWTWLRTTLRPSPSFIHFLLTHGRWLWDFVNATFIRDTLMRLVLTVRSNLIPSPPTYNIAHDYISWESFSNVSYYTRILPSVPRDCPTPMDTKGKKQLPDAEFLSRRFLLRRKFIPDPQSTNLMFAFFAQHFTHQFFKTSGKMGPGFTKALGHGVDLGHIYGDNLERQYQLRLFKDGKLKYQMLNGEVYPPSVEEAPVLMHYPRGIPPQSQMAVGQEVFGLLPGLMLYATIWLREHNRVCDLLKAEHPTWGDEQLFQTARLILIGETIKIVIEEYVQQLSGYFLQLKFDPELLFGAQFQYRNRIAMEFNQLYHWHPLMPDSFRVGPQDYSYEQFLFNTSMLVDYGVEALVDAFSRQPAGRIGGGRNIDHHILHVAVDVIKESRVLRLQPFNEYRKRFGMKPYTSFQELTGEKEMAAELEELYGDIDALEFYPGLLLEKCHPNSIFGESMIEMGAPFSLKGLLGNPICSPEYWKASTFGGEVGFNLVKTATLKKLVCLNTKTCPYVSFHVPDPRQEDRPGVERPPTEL

[2] = tested on: HeLa S3 (human cervical carcinoma); assay: MTT cytotoxic activity assay, HeLa S3; type: cell-based; conditions: 72 h, mean ± SEM of three replicates
Procedure: (§1) The cytotoxic activity of the isolated compounds was evaluated using the MTT viability assay with doxorubicin as the positive control and the results are presented in Table 2.
(§2) The MTT colorimetric method was performed to evaluate cytotoxic activity of the isolated compounds against human epidermoid carcinoma (KB; ATCC CCL17), human cervical carcinoma (HeLa S3; ATCC CCL2-2), human colon adenocarcinoma (HT-29; ATCC HTB-38), human breast adenocarcinoma (MCF-7; ATCC HTB-22), and human hepatocellular carcinoma (Hep G2; ATCC HB-8065) cell lines according to the previous method. The cancer cells were cultured in MEM containing 10% fetal bovine serum in the presence of 100 U/mL penicillin and 100 μg/mL streptomycin sulphate (Gibco, Rockville, MD, USA), seeded in a 96-well plate (3000 cells/well), and pre-incubated at 37 °C for 24 h in a 5% CO2 humidified atmosphere. The tested compounds with serial concentrations (0.3–100 μM) were added and incubated for a further 72 h in the same condition. At the end of treatment, 20 µL of MTT solution (5 mg/mL in PBS, Sigma, St. Louis, MI, USA) was added to each well and further incubated for 3 h. After centrifugation at 1400 rpm for 5 min at 4 °C, the supernatant was decanted and DMSO (100 µL/well) was added to allow formazan product solubilization, which was subsequently measured by a microplate reader (Tecan Trading AG, Switzerland) at wavelength 550 nm. Control cells were treated with 0.1% DMSO. Doxorubicin (tested concentrations: 0.01–3.0 μM, Sigma) was used as the positive control. The results are expressed as the mean values of three replicates for three independent experiments. IC50 values were determined by graphical analysis using SigmaPlot 10 (Systat Software Inc., San Jose, CA, USA), obtained by plotting the cell viability percentage versus sample concentration.

[3] = tested on: Hep G2 (human hepatocellular carcinoma); assay: MTT cytotoxic activity assay, Hep G2; type: cell-based; conditions: HepG2, 72 h, mean ± SEM of three replicates
Procedure: as §1
(§3) The MTT colorimetric method was performed to evaluate cytotoxic activity of the isolated compounds against human epidermoid carcinoma (KB; ATCC CCL17), human cervical carcinoma (HeLa S3; ATCC CCL2-2), human colon adenocarcinoma (HT-29; ATCC HTB-38), human breast adenocarcinoma (MCF-7; ATCC HTB-22), and human hepatocellular carcinoma (Hep G2; ATCC HB-8065) cell lines according to the previous method. […] After centrifugation at 1400 rpm for 5 min at 4 °C, the supernatant was decanted and DMSO (100 µL/well) was added to allow formazan product solubilization, which was subsequently measured by a microplate reader (Tecan Trading AG, Switzerland) at wavelength 550 nm. […] The results are expressed as the mean values of three replicates for three independent experiments. IC50 values were determined by graphical analysis using SigmaPlot 10 (Systat Software Inc., San Jose, CA, USA), obtained by plotting the cell viability percentage versus sample concentration.

[4] = tested on: KB (human epidermoid carcinoma); assay: MTT cytotoxic activity assay, KB; type: cell-based; conditions: 72 h, mean ± SEM of three replicates
Procedure: as §1, §2

[5] = tested on: MCF-7 (human breast adenocarcinoma); assay: MTT cytotoxic activity assay, MCF-7; type: cell-based; conditions: MCF7, 72 h, mean ± SEM of three replicates
Procedure: as §1, §3

[6] = tested on: HT-29 (human colon adenocarcinoma); assay: MTT cytotoxic activity assay, HT-29; type: cell-based; conditions: 72 h, mean ± SEM of three replicates
Procedure: as §1, §3

Row | Compound | COX-1 inhibitory activity, % inhibition [1] [%] | IC50 [2] [µM] | IC50 [3] [µM] | IC50 [4] [µM] | IC50 [5] [µM] | IC50 [6] [µM]
1 | C=C(C)[C@H]1C[C@@H](C[C@@]23C[C@@H](/C=C/C(C)C)C(C)(C)[C@@](CC=C(C)C)(C2=O)c2oc4cc(O)c(O)cc4c(=O)c2C3=O)C1(C)C [picrorhizone H] | 35.2 ± 9.6 |  |  |  |  | 
2 | COc1cccc2c1C(=O)c1c(O)c3c(c(O)c1C2=O)C[C@@](O)(C(=O)CO)C[C@@H]3O[C@H]1C[C@H](N)[C@H](O)[C@H](C)O1 [Doxorubicin, reference compound] |  | 0.15 ± 0.02 | 1 ± 0.17 | 0.02 ± 0.01 | 1.29 ± 0.02 | 0.59 ± 0.03

From article PMC8587515, “Cytotoxic and Anti-Inflammatory Activities of Dihydroisocoumarin and Xanthone Derivatives from Garcinia picrorhiza” (Molecules, 2021)
